Measured values from US10265337B2, “Use of A3 adenosine receptor agonist in osteoarthritis treatment” (CAN-FITE BIOPHARMA LTD., priority 2005, dated 2019).

How the values were obtained:
IKK = experiment: Western blot of knee joint protein extracts, IKK; type: in vivo, rat; conditions: OA rats, CF101 treated vs control, FIG. 4C
Text: (§1) To explore the fate of the A3AR and downstream key signaling proteins participating in the NF-kB and Wnt signaling pathways, knee joints protein extracts from control and CF101 treated animal were subjected to Western blot analysis.

GSK-3β = experiment: Western blot of knee joint protein extracts, GSK-3β; type: in vivo, rat; conditions: OA rats, CF101 treated vs control, FIG. 4E
Text: as §1

[1] = oral, healthy young men; cited from earlier work
rat FLS = experiment: MTT proliferation assay, rat fibroblast like synoviocytes; type: cell-based; conditions: CF101 10 nM added for the last 24 hours of 72 hours, FLS from adjuvant induced arthritis rats, FIG. 1B
Description: The effect of IB-MECA (herein at times CF101) alone or in combination with MTX, on the proliferation of the human or rat fibroblast like synoviocytes (FLS) was tested. […] Synovia tissue from adjuvant induced arthritis rats was collected. The tissue was minced and subjected for digestion in 4 mg/ml type I collagenase and 0.25 w/v trypsin in DMEM. The mixture was shacked vigorously for 4 hours at 37°. The released cells were separated from the supernatant by centrifugation and cultured in DMEM containing 15% FCS, 2 mM glutamine, 100 U/ml penicillin, 100 μg/ml streptomycin in a 37° C., 5% CO2 incubator. After overnight incubation the nonadherent cells were removed. The adherent cells (FLS) were sub-cultured at a 1:2 ratio, and the cells from passages 4 through 10 were used in the experiments. The effect of CF101 alone or in combination with MTX, on the proliferation of the FLS was tested utilizing an MTT assay. The cells (5×10^4/ml cells) were incubated in 96-well microtiter plates for 72 hours in the growth medium. At the last 24 hours CF101 (10 nM) were added to the cultures.

[2] = test system: mono-idoacetate (MIA) experimental osteoarthritis (OA); experiment: MIA experimental osteoarthritis model, roentgenographic examination of knees; type: in vivo, rat; conditions: MIA rats; CF101 100 μg/kg PO twice daily; FIGS. 3A-3D
Description: (§2) In the following study the effect of IB-MECA (herein, at times, CF101) on the development of experimental osteoarthritis (OA) was determined. In this study the mono-idoacetate (MIA) experimental model was utilized. The MIA is a rat experimental model that rapidly reproduces the clinical and pathological characteristic of OA. […] Infra-articular injection of MIA induces chondrocyte death in the articular cartilage of rodent. Specifically, male Wistar rats (˜200 gr) (Harlan laboratories) were anesthetized with Isoflurane and the right leg was flexed at a 90° angle of the knee. The MIA was dissolved in physiological saline and 2 mg, at a volume of 50 μL were injected intra-articular of the right foot of each animal, using a 27-gauge, 0.5-inch needle. Treatment with CF101, 100 μg/kg, Per Oz (PO), twice daily was initiated at day 7 post-injection.

[3] = test system: human fibroblast like synoviocytes (FLS); experiment: MTT proliferation assay, human fibroblast like synoviocytes; type: cell-based; conditions: CF101 10 nM added for the last 24 hours of 72 hours, FLS from OA patients, FIG. 1A
Description: The effect of IB-MECA (herein at times CF101) alone or in combination with MTX, on the proliferation of the human or rat fibroblast like synoviocytes (FLS) was tested. […] Human synovial fluid samples were collected from osteoarthritis (OA) patients undergoing paracenthesis. The fluid was centrifuged and the supernatant removed. The cells were resuspended in DMEM containing type I collagenase (4 mg/ml), for 2 hours, and shacked vigorously at 37°. The released cells in the supernatant were harvested by centrifugation and were cultured in DMEM containing 10% FBS, 2 mM glutamine, 100 U/ml penicillin, 100 μg/ml streptomycin, 1% non essential amino acids, 1% sodium pyruvate and […] HEPES buffer in a 37° C., 5% CO2 incubator. After overnight culture, non-adherent cells were removed. The adherent cells (FLS) were subcultured at a 1:2 ratio, and the cells from passages 4 through 10 were used in the experiments. The effect of CF101 alone or in combination with MTX, on the proliferation of the FLS was tested utilizing an MTT assay. The cells (5×10^4/ml cells) were incubated in 96-well microtiter plates for 72 hours in the growth medium. At the last 24 hours CF101 (10 nM) were added to the cultures.

A3AR = target: T1, A3AR (Rattus norvegicus, UniProt P28647); experiment: Western blot of knee joint protein extracts, A3AR; type: in vivo; conditions: OA rats, CF101 treated vs control, FIG. 4A
T1 construct: knee joints protein extracts from control and CF101 treated animal were subjected to Western blot analysis; from tissue; host or cells: rat knee joint (OA rats)
T1 sequence (P28647 1-320): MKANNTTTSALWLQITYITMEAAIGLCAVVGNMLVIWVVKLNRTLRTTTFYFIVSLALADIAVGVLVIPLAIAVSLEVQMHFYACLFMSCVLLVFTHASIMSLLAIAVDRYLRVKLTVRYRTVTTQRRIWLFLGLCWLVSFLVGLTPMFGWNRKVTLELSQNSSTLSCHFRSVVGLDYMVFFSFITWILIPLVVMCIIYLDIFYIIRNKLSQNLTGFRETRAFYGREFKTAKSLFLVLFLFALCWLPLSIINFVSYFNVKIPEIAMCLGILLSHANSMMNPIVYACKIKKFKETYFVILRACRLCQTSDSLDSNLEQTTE
Text: as §1

[4] = test system: mono-idoacetate (MIA) experimental osteoarthritis (OA); experiment: MIA experimental osteoarthritis model, knee diameter; type: in vivo, rat; conditions: male Wistar rats; CF101 100 μg/kg PO twice daily from day 7 post-injection; vs control group, P=9.48317E-06; FIG. 2
Description: as §2, with “post-injection. Knee diameter was measured using calibrated digital caliper adapted by reinforcing the tips for knee diameter measure. The results presented in FIG. 2 show the delta between the diameter of the MIA injected knee (Right knee) and the diameter of the MIA un-injected knee (Left knee) within the same animal. The group of the control is compared to the CF101 treated group (5 animals in each group).” for “post-injection.”

PI3K = experiment: Western blot of knee joint protein extracts, PI3K; type: in vivo, rat; conditions: OA rats, CF101 treated vs control, FIG. 4B
Text: as §1

CNC(=O)[C@H]1O[C@@H](n2cnc3c(NCc4cccc(I)c4)ncnc32)[C@H](O)[C@@H]1O [CF101, 1-deoxy-1-{6-[({3-iodophenyl}methyl)amino]-9H-purine-9-yl}-N-methyl-β-D-ribofuranuronamide]
IKK expression level in knee joints (IKK): down-regulation
GSK-3β expression level in knee joints (GSK-3β): up-regulated
half life in human plasma [1]: 8 to 10 h
effect on the proliferation of rat FLS (rat FLS): marked inhibitory effect
roentgenographic examination of knees [2]: normal tibial epiphysial line without sclerosis
effect on the proliferation of human FLS [3]: marked inhibitory effect
A3AR expression level in knee joints (A3AR): down-regulated
development of tissue swelling (delta between diameter of MIA injected and un-injected knee) [4]: significantly inhibited
PI3K expression level in knee joints (PI3K): down-regulation
